Measured values reported in patent US12678475B2, “Compositions and methods for treating and preventing lung disease” (ARIZONA BOARD OF REGENTS ON BEHALF OF THE UNIVERSITY OF …, priority 2016, dated 2026).

Key:
[1] = tested on: SP-A deficient mice challenged in the HDM model; experiment: HDM model in SP-A deficient mice, therapeutic SP-A peptides; assay type: in vivo; conditions: peptide given 24 hrs after the last challenge; for eosinophilia in the lavage compartment: compared to vehicle treated mice (FIG. 3A); for mucin production: compared to vehicle treated mice (FIG. 3B)
Method: FIGS. 3A and 3B show the analysis of inflammation in mice that receive “therapeutic” SP-A peptides in the HDM model. Mice were sensitized and challenged in the HDM model according to common methods. Twenty-four hours after the last challenge, mice received either vehicle, a 20-mer or a 10-mer that encompassed the active site containing 223Q. BAL cellularity (left panel) and mucin production (right panel) were assessed 7 days post challenge to assess the role of SP-A on allergic airways resolution. […] Both 223Q and 223K mice are somewhat protected in the acute phase of this model.

[2] = tested on: WT C57BL/6 mice, HDM model; experiment: Methacholine-induced airway hyper-responsiveness (AHR) in HDM model; assay type: in vivo; conditions: 25 mg/mouse in 40 ml saline oropharyngeal 24 h after each challenge, 3-5 days post HDM challenge, vs vehicle
Method: Twenty-four hours after each challenge, mice received either scrambled vehicle or a 10-mer SP-A peptide (KEQCVEMYTD (SEQ ID NO: 4)) (arrow) that encompassed the active site containing 223Q (at a physiologic dose of […] delivered in […] of sterile saline) by oropharyngeal instillation. Pulmonary function tests were conducted 3-5 days post HDM challenge to determine if the SP-A peptide could protect from methacholine-induced airway hyper-responsiveness (AHR). Mice that received the SP-A peptide after HDM challenge had attenuated: overall resistance (Rrs) and central airways resistance (Rn) as compared to HDM challenged mice that received vehicle treatment.

[3] = tested on: WT C57BL/6 mice challenged with IL-13; experiment: Methacholine-induced airway hyper-responsiveness (AHR) in IL-13 model; assay type: in vivo; conditions: IL-13 model (3.9 ug IL-13 daily, 3 days); oropharyngeal 2 h after each challenge; 24 hours post IL-13 challenge; vs vehicle
Method: WT C57BL/6 mice were challenged with 3.9 ug of IL-13 (arrow) once a day for 3 consecutive days via oropharyngeal instillation. […] Pulmonary function tests were conducted 24 hours post IL-13 challenge to determine if the SP-A peptide could protect from methacholine-induced airway hyper-responsiveness (AHR). Mice that received the SP-A peptide after HDM challenge had attenuated: overall resistance (Rrs) and central airways resistance (Rn) as compared to HDM challenged mice that received vehicle treatment.

[4] = tested on: human airway epithelial cells; experiment: IL-13 exposure of airway epithelial cells from asthmatics at air liquid interface, MUC5AC by RT-PCR; assay type: cell-based
Method: Airway epithelial cells at ALI from two asthmatic subjects exposed to IL-13 alone, and IL-13 plus SP-A2 peptide that include the Gln at position 223 in the lectin domain (2230). Full-length oligomeric SP-A that is homozygous at position 223Q/Q was used as a positive control. After 48 hours incubation, MUCSAC expression was determined by RT-PCR
Experiments were conducted wherein airway epithelial cells from two subjects with asthma not on controller therapy were cultured at air liquid interface for two weeks. In separate conditions the cells were exposed to each peptide at 50 ng/ml for 30 minutes followed by IL-13 at 50 ng/ml and incubated for 48 hours. Cells were placed in Trizol MUCSAC was determined by RT-PCR. […] The 10 AA length is especially useful as a therapeutic agent as its size renders it able to be packaged into an inhaler type of device for delivery to the airways.
Regarding FIG. 8, human bronchial epithelial cells obtained from a well-phenotyped asthmatic were grown at an ALI for two weeks prior to experimentation. For challenge, each of the SP-A test peptides (50 μg/ml) were added to the apical compartment at least 30 minutes prior to IL-13 challenge. Muc5AC was analyzed by RT-PCR from cell lysates and analyzed as a fold over the control samples. Peptide sequences: 20-mer […] (SEQ ID NO: 8), peptide 1 PAGRGKEQCV (SEQ ID NO: 2), peptide 2 EMYTDGQWND (SEQ ID NO: 3), peptide 3 KEQCVEMYTD (SEQ ID NO: 4) FL=full length oligomeric SP-A that is extracted from lavage of alveolar proteinosis individuals.

[5] = tested on: WT C57BL/6 mice, house dust mite (HDM) model; experiment: House dust mite (HDM) model in WT C57BL/6 mice, mucin production and BAL eosinophilia; assay type: in vivo; conditions: WT C57BL/6, HDM days 0, 7, 14; 25 μg/mouse oropharyngeal 24 h after last challenge (FIGS. 5, 6)
Method: Regarding FIG. 5, WT C57BL/6 mice were sensitized and challenged in the house dust mite (HDM) model according to standard methods on days 0, 7, 14 (black arrows). Twenty-four hours after the last challenge, mice received either scrambled vehicle or a 20-mer SP-A peptide (dotted arrow) that encompassed the active site containing 223Q (at a physiologic dose of 25 μg/mouse delivered in 40 μl of sterile saline) by oropharyngeal instillation. Lung histological sections were analyzed for mucin production as assessed by PAS stain/scoring to determine if the SP-A peptide could protect from HDM-induced airway mucin production. […] Peptide sequence: […] (SEQ ID NO: 8).
Regarding FIG. 6, WT C57BL/6 mice were sensitized and challenged in the house dust mite (HDM) model according to standard methods on days 0, 7, 14 as shown in FIG. 5 (black arrows). […] Lung histological sections were analyzed for mucin production as assessed by PAS stain/scoring to determine if the SP-A peptide could protect from HDM-induced airway mucin production. […]
Regarding FIG. 7, WT C57BL/6 mice were sensitized and challenged in the house dust mite (HDM) model according to standard methods on days 0, 7, 14 as shown in FIG. 5 (black arrows). […] Bronchoalveolar lavage samples were analyzed for eosinophilia to determine if the SP-A peptide could protect from HDM-induced airway eosinophilia by decreasing eosinophil viability. […]

[6] = tested on: eosinophils; experiment: In vitro studies with isolated eosinophils; assay type: cell-based
[7] = airway epithelial cells from asthmatic subjects with allergic or type 2 asthma

Substance	eosinophilia in the lavage compartment [1]	mucin production [1]	central airways resistance (Rn) [2]	overall resistance (Rrs) [2]	central airways resistance (Rn) [3]	overall resistance (Rrs) [3]	MUCSAC expression (RT-PCR) ([4]; cells from two asthmatic subjects at ALI, peptide 50 ng/ml 30 minutes, then IL-13 50 ng/ml, 48 hours (FIG. 4))	mucin production (PAS stain/scoring) [5]	IL-6 induced by IL-13 [4, 7]	mucin induced by IL-13 [4, 7]	eosinophil apoptosis [6]
KEQCVEMYTD (listed as Homo sapiens) [SEQ ID NO: 4]	significantly less eosinophilia	less mucin production	attenuated	attenuated	attenuated	attenuated	attenuates				
PAGRGKEQCVEMYTDGQWND (listed as Homo sapiens) [SEQ ID NO: 8]	significantly less eosinophilia	less mucin production						reduce mucin production			
SP-A: Surfactant protein-A, a secreted lipoprotein complex; full length oligomeric SP-A extracted from lavage of alveolar proteinosis individuals									attenuates	attenuates	directly stimulates eosinophil apoptosis
